# Source: patent US20240327364A1, “THERAPEUTIC TARGETING OF GPR68 TO INDUCE FERROPTOSIS” (University Of Maryland, Baltimore, priority 2023, published 2024)
# Where two headings read alike, the source gives them in different places.
# Tests used:
# [1] = target: T1, GPR68/OGR1 (Homo sapiens, UniProt Q15743); assay: CHEM1-OGR1 cells Fluo-8 calcium assay, acidified media pH 6.4; type: cell-based
# T1 construct: host or cells: Chem-1 (CHEM1-OGR1) cells
# Experimental: Briefly, the methods were: On the day before the assay 20,000 cells per well of CHEM1-OGR1 cells were plated in 10% DMEM containing 10% FBS and 1% Pen/Strep into a 96 well plate. After 24 hours media was removed and cells were stained with 80 μL Fluo-8 calcium indicator dye according to manufacturer's protocol. After staining cells were treated with 20 uL of 4× concentration of test compounds. Using kinetic imaging in the Lionheart HCS fluorescence intensity was continuously measure at 10 frames per second, for 5 seconds before 100 μL of acidified media was added to the well resulting in a pH of 6.4. A ratio of fluorescence intensities prior to addition and at peak were calculated and averaged. The resulting data were platted and using a 4 parameter logistic regression EC50 (the concentration causing 50% effective inhibition) for each test compound was determined.
# [2] = test system: human pulmonary artery endothelial cells (HPAECs); assay: Cyclic stretch-triggered endothelial cell activation; type: cell-based; conditions: for Rho activation by 18% cyclic stretch: OGM2 at 5 μM, OGM1 at 3 μM, Rho-GTP pulldown
# Experimental: FIG. 33A through FIG. 33D: Cyclic stretch-triggered endothelial cell (EC) activation is abolished by OGM2 and OGM1. FIG. 33A: In human pulmonary artery endothelial cells (HPAECs), pretreatment with OGMs (OGM2 at 5 μM and OGM1 at 3 μM) abolished Rho activation by 18% cyclic stretch (18% CS), as determined by Rho-GTP pulldown assay. ST, static condition. FIG. 33B: Treatment with OGM2 or OGM1 blocked CS-triggered activation of myosin phosphatase target (MYPT) and myosin light chain (MLC) in ECs, as determined by their phosphorylation MYPT and MLC. FIG. 33C: OGM2 or OGM1 blocked CS-induced TNF-α mRNA expression in ECs. n=3, ^#P<0.05 versus ST, *P<0.05 versus 18% CS. Error bars, standard deviation. FIG. 33D: OGM2 and OGM1 blocked CS-induced VCAM-1 expression in ECs. Here, OGM=OGM2.
# [3] = target: GPR68 (Homo sapiens, UniProt Q15743); assay: Chem1-OGR1 cells washout (reversibility); type: cell-based; set-up: host or cells: Chem-1 cells (Chem1-OGR1); conditions: for reversibility of GPR68 inhibition: washout
# Experimental: Chem1-GPR68 reporter cells were treated with 20 uM OM8345 for 2 hours and then rinsed with HBSS. […] The GPR68 inhibitory activity of OGM analogs segregated with the ability of the molecule to induce the phenotype in zebrafish.
# Additional experiments, whereby OGM2 was resynthesized and used (due to its submicromolar potency and GPR68 specificity) were performed. See FIG. 6A (HNMR of resynthesis of OGM2) and FIG. 6B (LCMS of resynthesis of OGM2). To test the possibility of OGM2 being an irreversible inhibitor, Chem1-OGR1 cells (Millipore™) were incubated with 10 μM OGM2 for 4 hours, and after removing the compound stimulated with pH 6.4 medium. […] Time till 50% max ˜52 minutes. The signal returned back towards baseline uninhibited levels in a rapid and time-dependent manner.
# [4] = target: T2, ABL1(M351T)-phosphorylated (Homo sapiens, UniProt P00519, M351T); assay: KinomeScan; type: binding; conditions: read-out: % Control
# T2 construct: purchased DiscoveRx
# [5] = target: T3, CAMK2D (Homo sapiens, UniProt Q13557); assay: KinomeScan; type: binding; conditions: read-out: % Control
# T3 construct: purchased DiscoveRx (KinomeScan service)
# [6] = target: T4, CAMK4 (Homo sapiens, UniProt Q16566); assay: KinomeScan; type: binding; conditions: read-out: % Control
# T4 construct: purchased DiscoveRx (KinomeScan service)
# [7] = target: CIT (Homo sapiens, UniProt O14578); assay: KinomeScan; type: binding; conditions: read-out: % Control
# [8] = target: T5, DCAMKL2 (Homo sapiens, UniProt Q8N568); assay: KinomeScan; type: binding; conditions: read-out: % Control
# T5 construct: purchased DiscoveRx (Fremont, CA), KinomeScan service
# [9] = target: T6, DRAK1 (Homo sapiens, UniProt Q9UEE5); assay: KinomeScan; type: binding; conditions: read-out: % Control
# T6 construct: purchased DiscoveRx (Fremont, CA), KinomeScan service
# [10] = target: T7, IKK-epsilon (Homo sapiens, UniProt Q14164); assay: KinomeScan; type: binding; conditions: read-out: % Control
# T7 construct: purchased DiscoveRx (Fremont, CA)
# [11] = target: T8, MARK2 (Homo sapiens, UniProt Q7KZI7); assay: KinomeScan; type: binding; conditions: read-out: % Control
# T8 construct: purchased DiscoveRx (Fremont, CA)
# [12] = target: T9, NEK7 (Homo sapiens, UniProt Q8TDX7); assay: KinomeScan; type: binding; conditions: read-out: % Control
# T9 construct: purchased DiscoveRx
# [13] = target: T10, PKMYT1 (Homo sapiens, UniProt Q99640); assay: KinomeScan; type: binding; conditions: read-out: % Control
# T10 construct: purchased DiscoveRx (Fremont, CA)
# [14] = target: T11, PKN1 (Homo sapiens, UniProt Q16512); assay: KinomeScan; type: binding; conditions: read-out: % Control
# T11 construct: purchased DiscoveRx (Fremont, CA)
# [15] = target: T12, QSK (Homo sapiens, UniProt Q9Y2K2); assay: KinomeScan; type: binding; conditions: read-out: % Control
# T12 construct: purchased DiscoveRx (Fremont, CA)
# [16] = target: T13, RIPK5 (Homo sapiens, UniProt Q6XUX3); assay: KinomeScan; type: binding; conditions: read-out: % Control
# T13 construct: purchased DiscoveRx (Fremont, CA)
# [17] = target: T14, TEC (Homo sapiens, UniProt P42680); assay: KinomeScan; type: binding; conditions: read-out: % Control
# T14 construct: purchased DiscoveRx (Fremont, CA)
# [18] = target: T15, YSK1 (Homo sapiens, UniProt O00506); assay: KinomeScan; type: binding; conditions: read-out: % Control
# T15 construct: purchased DiscoveRx
# [19] = target: T16, GPR103 (Homo sapiens, UniProt Q96P65); assay: GPCR Profiler; type: cell-based
# T16 construct: host or cells: Chem-1 cells expressing Gα15
# [20] = target: T17, OX2 (Homo sapiens, UniProt O43614); assay: GPCR Profiler; type: cell-based
# T17 construct: host or cells: Chem-1 cells expressing Gα15
# [21] = target: T18, sst2 (Homo sapiens, UniProt P30874); assay: GPCR Profiler; type: cell-based
# T18 construct: host or cells: Chem-1 cells with Gα15
# [22] = target: T19, sst3 (Homo sapiens, UniProt P32745); assay: GPCR Profiler; type: cell-based
# T19 construct: host or cells: Chem-1 cells with Gα15
# [23] = concentration causing 50% effective inhibition of calcium response to pH 6.4, read-out: EC50
# T1 sequence (Q15743 whole entry): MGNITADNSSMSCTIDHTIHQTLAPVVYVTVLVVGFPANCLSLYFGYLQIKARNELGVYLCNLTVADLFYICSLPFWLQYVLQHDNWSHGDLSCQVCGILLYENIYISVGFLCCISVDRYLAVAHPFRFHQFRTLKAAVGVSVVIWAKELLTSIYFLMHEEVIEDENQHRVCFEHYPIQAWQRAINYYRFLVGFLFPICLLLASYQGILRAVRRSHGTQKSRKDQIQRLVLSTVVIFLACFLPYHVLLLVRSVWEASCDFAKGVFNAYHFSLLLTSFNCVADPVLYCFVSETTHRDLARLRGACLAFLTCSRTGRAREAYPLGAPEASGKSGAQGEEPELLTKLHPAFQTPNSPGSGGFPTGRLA
# Sequence of GPR68 (Q15743 whole entry): as above
# T17 sequence (O43614 whole entry): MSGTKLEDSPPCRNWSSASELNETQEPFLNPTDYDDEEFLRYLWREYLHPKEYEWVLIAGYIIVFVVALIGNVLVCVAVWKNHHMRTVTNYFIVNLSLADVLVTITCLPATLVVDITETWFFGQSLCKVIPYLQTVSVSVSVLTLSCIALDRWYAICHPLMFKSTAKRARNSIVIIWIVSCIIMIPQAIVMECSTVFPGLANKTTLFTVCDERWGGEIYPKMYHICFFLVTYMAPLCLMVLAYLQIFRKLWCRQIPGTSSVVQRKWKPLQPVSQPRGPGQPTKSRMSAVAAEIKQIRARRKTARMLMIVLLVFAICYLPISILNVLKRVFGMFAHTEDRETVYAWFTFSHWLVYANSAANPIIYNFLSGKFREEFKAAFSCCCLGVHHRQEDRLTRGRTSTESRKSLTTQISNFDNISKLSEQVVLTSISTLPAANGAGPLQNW
# T16 sequence (Q96P65 whole entry): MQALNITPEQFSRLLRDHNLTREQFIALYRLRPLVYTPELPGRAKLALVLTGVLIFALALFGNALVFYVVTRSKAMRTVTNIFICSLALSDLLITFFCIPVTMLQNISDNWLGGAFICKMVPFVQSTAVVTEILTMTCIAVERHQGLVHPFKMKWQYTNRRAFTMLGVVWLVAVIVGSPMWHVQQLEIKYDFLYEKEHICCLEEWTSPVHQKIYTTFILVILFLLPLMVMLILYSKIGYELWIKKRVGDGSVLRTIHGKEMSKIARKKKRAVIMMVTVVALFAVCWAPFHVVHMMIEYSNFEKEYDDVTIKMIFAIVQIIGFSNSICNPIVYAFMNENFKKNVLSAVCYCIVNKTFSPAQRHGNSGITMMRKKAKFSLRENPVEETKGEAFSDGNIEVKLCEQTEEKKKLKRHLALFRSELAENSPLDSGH
# T19 sequence (P32745 whole entry, species assumed): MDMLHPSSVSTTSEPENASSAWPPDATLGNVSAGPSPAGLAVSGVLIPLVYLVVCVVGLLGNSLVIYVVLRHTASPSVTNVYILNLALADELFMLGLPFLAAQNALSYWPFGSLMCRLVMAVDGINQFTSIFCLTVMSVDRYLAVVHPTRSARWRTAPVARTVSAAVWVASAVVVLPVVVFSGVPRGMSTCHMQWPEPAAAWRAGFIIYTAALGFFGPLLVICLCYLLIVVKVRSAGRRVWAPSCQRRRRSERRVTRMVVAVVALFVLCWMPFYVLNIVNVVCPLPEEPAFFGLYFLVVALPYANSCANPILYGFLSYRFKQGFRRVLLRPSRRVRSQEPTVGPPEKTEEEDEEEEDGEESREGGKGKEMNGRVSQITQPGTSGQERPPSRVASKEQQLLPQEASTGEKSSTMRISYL
# T18 sequence (P30874 whole entry, species assumed): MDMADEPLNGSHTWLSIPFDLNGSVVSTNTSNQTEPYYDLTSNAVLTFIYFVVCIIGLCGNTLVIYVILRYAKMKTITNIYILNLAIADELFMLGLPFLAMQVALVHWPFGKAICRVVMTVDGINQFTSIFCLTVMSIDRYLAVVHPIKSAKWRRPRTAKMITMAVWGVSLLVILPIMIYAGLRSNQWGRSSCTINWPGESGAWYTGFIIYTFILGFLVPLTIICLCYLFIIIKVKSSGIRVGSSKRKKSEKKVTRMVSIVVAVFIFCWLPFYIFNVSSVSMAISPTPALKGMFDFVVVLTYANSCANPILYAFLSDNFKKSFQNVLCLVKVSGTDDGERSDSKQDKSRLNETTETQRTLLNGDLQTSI
# T7 sequence (Q14164 whole entry): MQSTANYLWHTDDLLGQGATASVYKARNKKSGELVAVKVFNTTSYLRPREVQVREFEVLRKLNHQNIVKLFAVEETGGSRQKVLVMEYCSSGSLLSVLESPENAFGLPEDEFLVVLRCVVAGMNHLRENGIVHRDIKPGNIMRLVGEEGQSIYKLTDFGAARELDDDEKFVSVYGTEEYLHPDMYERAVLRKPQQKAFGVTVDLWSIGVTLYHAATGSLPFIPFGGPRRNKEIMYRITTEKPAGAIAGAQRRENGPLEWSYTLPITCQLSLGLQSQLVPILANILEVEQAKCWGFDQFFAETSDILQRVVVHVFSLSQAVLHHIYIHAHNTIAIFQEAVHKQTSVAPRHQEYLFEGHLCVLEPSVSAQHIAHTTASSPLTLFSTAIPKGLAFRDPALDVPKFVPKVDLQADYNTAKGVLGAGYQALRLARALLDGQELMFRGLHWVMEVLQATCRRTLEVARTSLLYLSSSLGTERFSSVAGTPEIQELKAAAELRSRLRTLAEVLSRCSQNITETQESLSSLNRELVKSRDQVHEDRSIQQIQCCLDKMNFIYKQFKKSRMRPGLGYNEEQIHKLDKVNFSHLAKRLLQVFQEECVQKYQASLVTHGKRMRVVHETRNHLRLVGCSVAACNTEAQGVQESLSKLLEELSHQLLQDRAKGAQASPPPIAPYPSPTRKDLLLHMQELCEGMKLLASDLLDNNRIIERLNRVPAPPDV
# T11 sequence (Q16512 whole entry): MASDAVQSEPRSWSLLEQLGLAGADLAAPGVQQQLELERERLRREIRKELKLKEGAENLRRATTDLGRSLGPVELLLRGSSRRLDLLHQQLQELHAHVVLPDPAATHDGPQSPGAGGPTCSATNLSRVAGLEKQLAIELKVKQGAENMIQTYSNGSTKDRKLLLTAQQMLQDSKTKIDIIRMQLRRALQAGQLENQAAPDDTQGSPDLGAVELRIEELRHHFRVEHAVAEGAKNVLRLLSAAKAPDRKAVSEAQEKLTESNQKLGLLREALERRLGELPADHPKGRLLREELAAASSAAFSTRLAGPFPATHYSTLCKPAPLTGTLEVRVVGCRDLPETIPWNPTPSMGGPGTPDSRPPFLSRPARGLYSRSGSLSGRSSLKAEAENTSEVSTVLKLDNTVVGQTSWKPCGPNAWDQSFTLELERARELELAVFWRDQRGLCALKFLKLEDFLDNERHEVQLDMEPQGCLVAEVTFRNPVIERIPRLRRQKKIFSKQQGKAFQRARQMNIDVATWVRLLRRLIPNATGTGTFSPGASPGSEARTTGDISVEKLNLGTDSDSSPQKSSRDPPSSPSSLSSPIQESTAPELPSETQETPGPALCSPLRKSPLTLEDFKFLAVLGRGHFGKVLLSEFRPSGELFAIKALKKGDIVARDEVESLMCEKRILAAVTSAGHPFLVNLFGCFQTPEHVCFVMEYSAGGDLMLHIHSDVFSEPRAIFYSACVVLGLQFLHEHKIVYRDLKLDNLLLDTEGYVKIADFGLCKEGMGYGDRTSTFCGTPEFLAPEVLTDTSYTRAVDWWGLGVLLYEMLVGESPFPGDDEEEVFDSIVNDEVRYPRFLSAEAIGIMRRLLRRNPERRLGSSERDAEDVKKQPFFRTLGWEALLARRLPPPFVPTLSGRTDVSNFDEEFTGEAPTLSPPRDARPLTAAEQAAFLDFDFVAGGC
# T15 sequence (O00506 whole entry): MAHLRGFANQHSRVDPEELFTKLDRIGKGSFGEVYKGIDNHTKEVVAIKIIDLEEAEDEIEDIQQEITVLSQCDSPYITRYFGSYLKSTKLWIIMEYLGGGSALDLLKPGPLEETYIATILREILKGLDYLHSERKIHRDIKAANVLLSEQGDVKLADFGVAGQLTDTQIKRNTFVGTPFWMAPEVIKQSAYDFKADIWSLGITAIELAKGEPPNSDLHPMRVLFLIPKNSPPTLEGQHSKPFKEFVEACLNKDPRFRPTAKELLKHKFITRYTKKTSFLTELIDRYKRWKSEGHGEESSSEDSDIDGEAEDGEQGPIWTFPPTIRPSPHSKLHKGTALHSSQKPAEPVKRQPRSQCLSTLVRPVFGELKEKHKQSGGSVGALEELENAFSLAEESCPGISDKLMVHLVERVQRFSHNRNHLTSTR
# T9 sequence (Q8TDX7 whole entry): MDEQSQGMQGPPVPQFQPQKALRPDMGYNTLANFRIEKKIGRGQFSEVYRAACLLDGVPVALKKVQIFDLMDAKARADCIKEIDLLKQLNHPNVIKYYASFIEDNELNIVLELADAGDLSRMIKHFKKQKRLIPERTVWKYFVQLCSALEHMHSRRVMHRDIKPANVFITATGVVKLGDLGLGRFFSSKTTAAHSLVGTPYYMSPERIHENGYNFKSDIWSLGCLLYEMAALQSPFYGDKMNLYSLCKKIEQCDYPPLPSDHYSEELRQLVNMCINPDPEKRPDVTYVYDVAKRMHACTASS
# T4 sequence (Q16566 whole entry): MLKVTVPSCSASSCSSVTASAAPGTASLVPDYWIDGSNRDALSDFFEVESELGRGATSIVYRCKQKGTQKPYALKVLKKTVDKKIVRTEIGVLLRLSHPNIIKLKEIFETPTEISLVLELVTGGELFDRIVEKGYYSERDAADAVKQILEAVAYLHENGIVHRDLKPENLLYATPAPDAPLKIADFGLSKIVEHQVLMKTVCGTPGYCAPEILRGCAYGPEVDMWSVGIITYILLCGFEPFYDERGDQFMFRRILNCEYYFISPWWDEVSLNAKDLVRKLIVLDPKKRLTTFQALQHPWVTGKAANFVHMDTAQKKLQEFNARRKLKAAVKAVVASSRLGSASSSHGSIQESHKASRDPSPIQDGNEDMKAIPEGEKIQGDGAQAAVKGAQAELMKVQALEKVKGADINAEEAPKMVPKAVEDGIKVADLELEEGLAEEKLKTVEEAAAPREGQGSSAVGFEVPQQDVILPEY
smiles,measurement,setting,value
CCc1ccc2c(c1)C1(NN=C(c3ccccc3)S1)C(=O)N2 (stereo not shown) [OGM2],EC50,"[1]; Table 5, read-out: GPR68",710 nM
same,EC50,[1]; [23],710 nM
same,CS-induced TNF-α mRNA expression,[2],blocked
same,CS-induced VCAM-1 expression,[2],blocked
same,Rho activation by 18% cyclic stretch,[2],abolished
same,Time till 50% max,"[3]; recovery of GPR68 activity after washout, 10 μM OGM2 for 4 hours, pH 6.4 medium",~52 min
same,reversibility of GPR68 inhibition,[3],reversible and highly specific inhibitor of GPR68
same,reversibility of GPR68 inhibition,[3]; listed as OM8345,reversible inhibition of GPR68
"CCc1ccc2c(c1)C1(NN=C(c3cccc4ccccc34)S1)C(=O)N2 (stereo not shown) [OGM1, 5-ethyl-5′-naphthalen-1-ylspiro[1H-indole-3,2′-3H-1,3,4-thiadiazole]-2-one]",EC50,"[1]; Table 5, read-out: GPR68",160 nM
same,EC50,[1]; [23],306 nM
same,remaining binding at 10 µM,[4],84%
same,remaining binding at 10 µM,[5],91%
same,remaining binding at 10 µM,[6],100%
same,remaining binding at 10 µM,[7],94%
same,remaining binding at 10 µM,[8],100%
same,remaining binding at 10 µM,[9],100%
same,remaining binding at 10 µM,[10],100%
same,remaining binding at 10 µM,[11],100%
same,remaining binding at 10 µM,[12],100%
same,remaining binding at 10 µM,[13],78%
same,remaining binding at 10 µM,[14],100%
same,remaining binding at 10 µM,[15],100%
same,remaining binding at 10 µM,[16],56%
same,remaining binding at 10 µM,[17],93%
same,remaining binding at 10 µM,[18],80%
same,Antagonism,[19]; 10 uM,−7
same,Agonism,[19]; 12.5 uM,−0.1
same,Antagonism,[20]; 10 uM,−3.4
same,Agonism,[20]; 12.5 uM,0.2
same,Antagonism,[21]; 10 uM,−1
same,Agonism,[21]; 12.5 uM,−0.2
same,Antagonism,[22]; 10 uM,0
same,Agonism,[22]; 12.5 uM,0
same,CS-induced TNF-α mRNA expression,[2],blocked
same,CS-induced VCAM-1 expression,[2],blocked
same,Rho activation by 18% cyclic stretch,[2],abolished
same,reversibility of GPR68 inhibition,[3],reversible inhibitor of GPR68
